Results reported in patent EP4043444A1, “SUBSTITUTED ISOXAZOLINE DERIVATIVES” (priority 2021, dated 2022).
Where two headings read alike, the source gives them in different places.

Key:
Assay type in all cases: in vivo
[1] = tested on: Tobacco Budworm (Heliothis virescens); test: Tobacco Budworm control, 96-well microtiter plates with insect diet and eggs; conditions: Heliothis virescens, 120 h, read-out: mortality (Egg and larval mortality)
Protocol: For evaluating control of Tobacco Budworm, the test unit consisted of 96-well-microtiter plates containing an insect diet and 15-25 H. virescens eggs. The compounds were formulated using a solution containing 75% v/v water and 25% v/v DMSO. Different concentrations of formulated compounds were sprayed onto the insect diet at 10µl, using a custom-built micro atomizer, at two replications. After application, microtiter plates were incubated at about 28 + 1°C and about 80 + 5 % relative humidity for 5 days. Egg and larval mortality was then visually assessed.

[2] = tested on: Boll weevil (Anthonomus grandis); test: Boll weevil control, 96-well microtiter plates with insect diet and eggs; conditions: Anthonomus grandis, 120 h, read-out: mortality (Egg and larval mortality)
Protocol: For evaluating control of boll weevil, the test unit consisted of 96-well-microtiter plates containing an insect diet and 5-10 A. grandis eggs.
The compounds were formulated using a solution containing 75% v/v water and 25% v/v DMSO. Different concentrations of formulated compounds were sprayed onto the insect diet at 5µl, using a custom-built micro atomizer, at two replications.
After application, microtiter plates were incubated at about 25 + 1°C and about 75 + 5 % relative humidity for 5 days. Egg and larval mortality were then visually assessed.

[3] = tested on: Greenhouse Whitefly (Trialeurodes vaporarirorum); test: Greenhouse Whitefly control, 96-well microtiter plates with eggplant leaf disk and eggs; conditions: foliar, 144 h, read-out: mortality (Mortality of hatched crawlers)
Protocol: For evaluating control of Greenhouse Whitefly, the test unit consisted of 96-well-microtiter plates containing a leaf disk of eggplant leaf disk with Whitefly eggs. The compounds or mixtures were formulated using a solution containing 75% water and 25% DMSO. Different concentrations of formulated were sprayed onto the […] at 2.5µl, using a custom-built micro atomizer, at two replications. After application, microtiter plates were incubated at 23 + 1°C, 65 + 5% RH for 6 days. Mortality of hatched crawlers was then visually assessed.

[4] = tested on: Green Peach Aphid (Myzus persicae) (mixed life stages); test: Green Peach Aphid control through systemic means, artificial diet under artificial membrane; conditions: Myzus persicae, 72 h, read-out: mortality (Aphid mortality)
Text: For evaluating control of Green Peach Aphid through systemic means the test unit consisted of 96-well-microtiter plates containing liquid artificial diet under an artificial membrane. The compounds were formulated using a solution containing 75% v/v water and 25% v/v DMSO. Different concentrations of formulated compounds were pipetted into the aphid diet, using a custom-built pipette, at two replications. After application, 5 - 8 adult aphids were placed on the artificial membrane inside the microtiter plate wells. The aphids were then allowed to suck on the treated aphid diet and incubated at about 23 + 1°C and about 50 + 5 % relative humidity for 3 days. Aphid mortality and fecundity was then visually assessed.

[5] = tested on: Yellow Fever Mosquito (Aedes aegypti); test: whole plant or invertebrate; conditions: 48 h, 2 days, in comparison with untreated controls, read-out: mortality (Larval mortality)
Protocol: For evaluating control of Yellow Fever Mosquito the test unit consisted of 96-well-microtiter plates containing 200µl of tap water per well and 5-15 freshly hatched A. aegypti larvae. The active compounds were formulated using a solution containing 75% (v/v) water and 25% (v/v) DMSO. Different concentrations of formulated compounds or mixtures were sprayed onto the insect diet at 2.5µl, using a custom-built micro atomizer, at two replications.
After application, microtiter plates were incubated at 28 + 1°C, 80 + 5 % RH for 2 days. Larval mortality was then visually assessed.

[6] = 2500ppm, sprayed onto insect diet, 5 days, in comparison with untreated controls

Measured: mortality at 2500 ppm

O=C(Nc1ccc(F)cc1F)c1cc(NC2=NOC(c3cccc(C(F)(F)F)c3)(C(F)(F)F)C2)ccc1Cl (stereo not drawn) [I-20, 2-chloro-N-(2,4-difluorophenyl)-5-[[5-(trifluoromethyl)-5-[3-(trifluoromethyl)phenyl]-4H-isoxazol-3-yl]amino]benzamide]
≥ 75%: [1]; [6] | [2] | [3] | [4]

O=C(NC1C[S+]([O-])C1)c1cc(NC2=NOC(c3cc(Cl)c(F)c(Cl)c3)(C(F)(F)F)C2)ccc1Cl (stereo not drawn) [I-96, 2-chloro-5-[[5-(3,5-dichloro-4-fluoro-phenyl)-5-(trifluoromethyl)-4H-isoxazol-3-yl]amino]-N-(1-oxothietan-3-yl)benzamide]
≥ 75%: [1] | [2] | [5] | [4]

O=C(NC1CN(S(=O)(=O)C(F)F)C1)c1cc(NC2=NOC(c3cc(Cl)c(F)c(Cl)c3)(C(F)(F)F)C2)ccc1Cl (stereo not drawn) [I-98, 2-chloro-5-[[5-(3,5-dichloro-4-fluoro-phenyl)-5-(trifluoromethyl)-4H-isoxazol-3-yl]amino]-N-[1-(difluoromethylsulfonyl)azetidin-3-yl]benzamide]
≥ 75%: [1] | [2] | [5] | [4]

O=C(N[C@@H]1CON(CC(F)(F)F)C1=O)c1cc(NC2=NOC(c3cc(Cl)c(F)c(Cl)c3)(C(F)(F)F)C2)ccc1Cl (stereo partly drawn) [I-119, 2-chloro-5-[[5-(3,5-dichloro-4-fluoro-phenyl)-5-(trifluoromethyl)-4H-isoxazol-3-yl]amino]-N-[(4R)-3-oxo-2-(2,2,2-trifluoroethyl)isoxazolidin-4-yl]benzamide]
≥ 75%: [1] | [2] | [5] | [4]

N#CC1(NC(=O)c2cc(NC3=NOC(c4cc(Cl)cc(Cl)c4)(C(F)(F)F)C3)ccc2OC(F)(F)F)CC1 (stereo not drawn) [I-150]
≥ 75%: [1]; [6] | [2] | [5] | [4]

O=C(Nc1ccc(F)cc1F)c1cc(NC2=NOC(c3cc(Cl)cc(Cl)c3)(C(F)(F)F)C2)ccc1F (stereo not drawn) [I-154]
≥ 75%: [1]; [6] | [2] | [5] | [4]

O=C(Nc1ccc(F)cc1F)c1cc(NC2=NOC(c3cc(Cl)cc(Cl)c3)(C(F)(F)F)C2)ccc1OC(F)F (stereo not drawn) [I-157]
≥ 75%: [1]; [6] | [2] | [5] | [4]

O=C(Nc1ccc(F)cc1F)c1cc(NC2=NOC(c3cc(Cl)cc(Cl)c3)(C(F)(F)F)C2)ccc1C(F)(F)F (stereo not drawn) [I-158]
≥ 75%: [1]; [6] | [2] | [5] | [4]

CCN1OC[C@@H](NC(=O)c2cc(NC3=NOC(c4cc(Cl)cc(Cl)c4)(C(F)(F)F)C3)ccc2F)C1=O (stereo partly drawn) [I-162]
≥ 75%: [1]; [6] | [2] | [5] | [4]

CCN1OC[C@@H](NC(=O)c2cc(NC3=NOC(c4cc(Cl)cc(Cl)c4)(C(F)(F)F)C3)ccc2C)C1=O (stereo partly drawn) [I-163]
≥ 75%: [1]; [6] | [2] | [5] | [4]

CCN1OC[C@@H](NC(=O)c2cc(NC3=NOC(c4cc(Cl)cc(Cl)c4)(C(F)(F)F)C3)ccc2C(F)(F)F)C1=O (stereo partly drawn) [I-166]
≥ 75%: [1]; [6] | [2] | [5] | [4]

Cc1ccc(NC2=NOC(c3cc(Cl)cc(Cl)c3)(C(F)(F)F)C2)cc1C(=O)NC1CC1 (stereo not drawn) [I-169]
≥ 75%: [1]; [6] | [2] | [5] | [4]

O=C(NC1CC1)c1cc(NC2=NOC(c3cc(Cl)cc(Cl)c3)(C(F)(F)F)C2)ccc1OC(F)(F)F (stereo not drawn) [I-172]
≥ 75%: [1]; [6] | [2] | [5] | [4]

O=C(NCC(F)(F)F)c1cc(NC2=NOC(c3cc(Cl)cc(Cl)c3)(C(F)(F)F)C2)ccc1OC(F)F (stereo not drawn) [I-178]
≥ 75%: [1]; [6] | [2] | [5] | [4]

O=C(NCC(F)(F)F)c1cc(NC2=NOC(c3cc(Cl)cc(Cl)c3)(C(F)(F)F)C2)ccc1OC(F)(F)F (stereo not drawn) [I-179]
≥ 75%: [1]; [6] | [2] | [5] | [4]
